From US4112076A, “Epi-daunomycin and epi-adriamycin compounds and method of use” (priority 1975, dated 1978)
≈ marks a conversion by molar mass, not a printed value. Entries after “also recorded” stand apart in the source; their conditions may differ. Read-outs that look alike come from different tables or passages of the source.

Experiments:
[1] = Proliferation of uninfected mouse embryo fibroblast (MEF) cultures (cytotoxic action); assay type: cell-based; conditions: mouse, mouse embryo fibroblasts
Method: (§1) The test compound was evaluated on mouse embryo fibroblast (MEF) cultures infected with MSV and on similar uninfected cultures. After a treatment of three days the inhibiting doses (ID50) were evaluated on cell proliferation in uninfected cultures (cytotoxic action) and on MSV foci formation in infected cultures (antiviral action).
(§2) ^c inhibition of mouse embryo fibroblasts proliferation

[2] = test system: mouse embryo fibroblast (MEF) cultures; test: as above; assay type: cell-based
Method: as §1, §2

Hela cells = test: Cloning efficiency of Hela cells in vitro (colony inhibition); assay type: cell-based; conditions: Homo sapiens
Method: After treatment for 2, 8 and 24 hours, Hela cells were seeded (200 cells per plate) and the number of colonies determined 8 days later. The inhibiting dose (ID50) represents the does which produces a 50% inhibition of colonies.
^a cloning efficiency of Hela cells

[3] = test system: Moloney Sarcoma Virus (MSV); test: Formation of foci by Moloney Sarcoma Virus (MSV) in vitro (antiviral action); assay type: cell-based; conditions: Fibroblast, 72 h
Method: as §1
^b inhibition of MSV foci formation

[4] = test system: Ascites lymphocitic P 388 Leukemia; test: Ascites lymphocitic P 388 Leukemia in CDF1 mice, i.p. treatment days 1-9; assay type: in vivo, mouse (male CDF1); conditions: for Tumor evaluation, median survival time: control 12.1 days
L 1210 leukemia = test: Ascitic leukemia L 1210, treatment i.p. on day 1; assay type: in vivo, mouse
Text: (§3) Activity of 4-demethoxy-4'-epi-adriamycin on
(§4) ascitic leukemias. Treatment i.p. on day 1.
(§5) ^a Median survival time, % over untreated controls
(§6) ^b Long term survivors at 60 days

[5] = test system: experimental mouse tumors; test: Experimental mouse tumors (overall); assay type: in vivo; conditions: compared with adriamycin
Method: The test was carried out on groups of 10 mice (Swiss CD1). The compound under examination was administered intraperitoneally in varying doses to the test animals one day after intraperitoneal inoculation with 1×10^6 tumor cells/mouse.
(§7) The above compound was tested in comparison with adriamycin in several in vitro systems and experimental mouse tumors.

several in vitro systems = test: Several in vitro systems, comparison with adriamycin; assay type: cell-based; conditions: Table 6
Method: as §7

solid sarcoma 180 = test: Solid sarcoma 180, treatment i.v. on days 1 to 5; assay type: in vivo, mouse
Text: as §3
solid sarcoma 180. Treatment i.v. on days 1 to 5.
Average data of 2 experiments.
^a Tumor weight on day 11, % over untreated controls.

Gross leukemia = test: Gross leukemia, treatment i.v. on days 1 to 3; assay type: in vivo, mouse
Text: On Gross leukemia (which is a systemic tumor transplanted i.v.), the increase in the life span of mice treated with the two compounds at equitoxic doses was similar.
Activity of 4-demethoxy-4'-epi-adriamycin
on Gross leukemia. Treatment i.v. on days
Average data of 2 experiments^a.
^a See legends to Table 7.

P 388 leukemia = test: Ascitic leukemia P 388, treatment i.p. on day 1; assay type: in vivo, mouse
Text: as §3, §4, §5, §6

In the case of `COc1cccc2c1C(=O)c1c(O)c3c(c(O)c1C2=O)C[C@@](O)(C(C)=O)C[C@@H]3O[C@H]1C[C@@H](N)[C@@H](O)[C@H](C)O1` [3'-4'-epi-daunomycin, 3',4'-epi-daunomycin], the CC50 at 72 h ([1]; uninfected MEF, three days treatment, Table 2, read-out: Cytotoxic action ID50) is reported as 90 ng/mL (≈ 171 nM), the “cytotoxic activity in vitro compared with daunomycin” value [2] is reported as “less cytotoxic acitivity in vitro, when compared with daunomycin” and the IC50 (Hela cells; 2 h, read-out: ID50 (action on Hela cells), 2 hours treatment, Table 1) is reported as 270000 ng/mL (≈ 512000 nM). For the same compound, the IC50 (Hela cells; 8 h, read-out: ID50 (action on Hela cells), 8 hours treatment, Table 1) was 220000 ng/mL (≈ 417000 nM), the IC50 (Hela cells; 24 h, read-out: ID50 (action on Hela cells), 24 hours treatment, Table 1) was 190000 ng/mL (≈ 360000 nM) and the IC50 ([3]; read-out: Antiviral action ID50) was 45 ng/mL (≈ 85.3 nM). The “Toxicity (survivors at fifth day)” value ([4]; 1.56 mg/kg i.p., days 1-9) was 6/6, the “Tumor evaluation, T/C %” value ([4]; 1.56 mg/kg i.p., days 1-9) was 129% and the “Tumor evaluation, median survival time” value ([4]; 1.56 mg/kg i.p., days 1-9) was 15.7 days. The “Toxicity (survivors at fifth day)” value ([4]; 3.13 mg/kg i.p., days 1-9) was 6/6, the “Tumor evaluation, T/C %” value ([4]; 3.13 mg/kg i.p., days 1-9) was 142% and the “Toxicity (survivors at fifth day)” value ([4]; 6.25 mg/kg i.p., days 1-9) was 6/6. For the same compound, the “Tumor evaluation, T/C %” value ([4]; 6.25 mg/kg i.p., days 1-9) was 155%, the “Toxicity (survivors at fifth day)” value ([4]; 12.5 mg/kg i.p., days 1-9) was 6/6 and the “Tumor evaluation, T/C %” value ([4]; 12.5 mg/kg i.p., days 1-9) was 173%. For the same compound, the “Tumor evaluation, median survival time” value ([4]; 12.5 mg/kg i.p., days 1-9) was 21 days, the “Toxicity (survivors at fifth day)” value ([4]; 25 mg/kg i.p., days 1-9) was 6/6 and the “Tumor evaluation, T/C %” value ([4]; 25 mg/kg i.p., days 1-9) was 231%. The “Tumor evaluation, median survival time” value ([4]; 25 mg/kg i.p., days 1-9) was 28 days, the Cures ([4]; 25 mg/kg i.p., days 1-9, evaluated day 20) was 1 and the “anti-tumor activity in tumor bearing animals” value ([4]; Table 3) was “distinct anti-tumor activity”.
For `C[C@@H]1O[C@@H](O[C@H]2C[C@](O)(C(=O)CO)Cc3c(O)c4c(c(O)c32)C(=O)c2ccccc2C4=O)C[C@H](N)[C@H]1O` [4-demethoxy-4'-epi-adriamycin], the “LTS (long term survivors at 60 days)” value (L 1210 leukemia; 0.25 mg/Kg i.p. day 1) was 0/11, the “T/C % (median survival time, % over untreated controls)” value (L 1210 leukemia; 0.25 mg/Kg i.p. day 1) was 155% and the Toxic deaths (L 1210 leukemia; 0.25 mg/Kg i.p. day 1) was 0/11. The “LTS (long term survivors at 60 days)” value (L 1210 leukemia; 0.5 mg/Kg i.p. day 1) was 2/11, the “T/C % (median survival time, % over untreated controls)” value (L 1210 leukemia; 0.5 mg/Kg i.p. day 1) was 166% and the Toxic deaths (L 1210 leukemia; 0.5 mg/Kg i.p. day 1) was 0/11. The “LTS (long term survivors at 60 days)” value (L 1210 leukemia; 1 mg/Kg i.p. day 1) was 0/11, the “T/C % (median survival time, % over untreated controls)” value (L 1210 leukemia; 1 mg/Kg i.p. day 1) was 133% and the Toxic deaths (L 1210 leukemia; 1 mg/Kg i.p. day 1) was 11/11. For the same compound, the “antitumor activity at the optimal (non-toxic) dose vs adriamycin” value (L 1210 leukemia; L 1210) was “comparable to that of adriamycin”, the antitumor activity ([5]; all the systems tested) was “remarkable antitumor activity; also recorded: higher antitumor activity in mice, similar to adriamycin” and the “factor by which active doses are lower than those of adriamycin” value ([5]; mice) was 10 times. The CC50 at 72 h [1] was < 0.003 ng/mL, the “in vitro activity compared with adriamycin” value (several in vitro systems) was “definitely more active than adriamycin” and the “T/C % (tumor weight on day 11, % over untreated controls)” value (solid sarcoma 180; 0.06 mg/Kg i.v. days 1 to 5) was 87.3%. The Toxic deaths (solid sarcoma 180; 0.06 mg/Kg i.v. days 1 to 5) was 0/10, the “T/C % (tumor weight on day 11, % over untreated controls)” value (solid sarcoma 180; 0.12 mg/Kg i.v. days 1 to 5) was 85.1% and the Toxic deaths (solid sarcoma 180; 0.12 mg/Kg i.v. days 1 to 5) was 2/16. For the same compound, the “T/C % (tumor weight on day 11, % over untreated controls)” value (solid sarcoma 180; 0.25 mg/Kg i.v. days 1 to 5) was 41.9%, the Toxic deaths (solid sarcoma 180; 0.25 mg/Kg i.v. days 1 to 5) was 4/19 and the Toxic deaths (solid sarcoma 180; 0.5 mg/Kg i.v. days 1 to 5) was 9/9. The “inhibition of tumor growth on the eleventh day vs adriamycin” value (solid sarcoma 180; equitoxic doses) was “slightly lower than that of adriamycin”, the IC50 (Hela cells; 2 (hours) treatment, Table 6, read-out: ID50, cloning efficiency of Hela cells) was 0.35 ng/mL (≈ 0.682 nM) and the IC50 (Hela cells; 8 (hours) treatment, Table 6, read-out: ID50, cloning efficiency of Hela cells) was 0.1 ng/mL (≈ 0.195 nM). The IC50 (Hela cells; 24 (hours) treatment, Table 6, read-out: ID50, cloning efficiency of Hela cells) was 0.03 ng/mL (≈ 0.0584 nM), the “LTS (long term survivors)” value (Gross leukemia; 0.35 mg/Kg i.v. days 1 to 3) was 2/20 and the “T/C % (median survival time, % over untreated controls)” value (Gross leukemia; 0.35 mg/Kg i.v. days 1 to 3) was 153%. The Toxic deaths (Gross leukemia; 0.35 mg/Kg i.v. days 1 to 3) was 0/10, the “LTS (long term survivors)” value (Gross leukemia; 0.45 mg/Kg i.v. days 1 to 3) was 0/20 and the “T/C % (median survival time, % over untreated controls)” value (Gross leukemia; 0.45 mg/Kg i.v. days 1 to 3) was 196%. For the same compound, the Toxic deaths (Gross leukemia; 0.45 mg/Kg i.v. days 1 to 3) was 0/20, the “LTS (long term survivors)” value (Gross leukemia; 0.55 mg/Kg i.v. days 1 to 3) was 0/10 and the “T/C % (median survival time, % over untreated controls)” value (Gross leukemia; 0.55 mg/Kg i.v. days 1 to 3) was 186%. The Toxic deaths (Gross leukemia; 0.55 mg/Kg i.v. days 1 to 3) was 0/10, the “LTS (long term survivors)” value (Gross leukemia; 0.6 mg/Kg i.v. days 1 to 3) was 0/10 and the “T/C % (median survival time, % over untreated controls)” value (Gross leukemia; 0.6 mg/Kg i.v. days 1 to 3) was 214%. For the same compound, the Toxic deaths (Gross leukemia; 0.6 mg/Kg i.v. days 1 to 3) was 1/10, the “LTS (long term survivors)” value (Gross leukemia; 0.65 mg/Kg i.v. days 1 to 3) was 0/10 and the “T/C % (median survival time, % over untreated controls)” value (Gross leukemia; 0.65 mg/Kg i.v. days 1 to 3) was 207%. For the same compound, the Toxic deaths (Gross leukemia; 0.65 mg/Kg i.v. days 1 to 3) was 0/10, the “increase in life span vs adriamycin” value (Gross leukemia; equitoxic doses) was “similar” and the IC50 ([3]; read-out: ID50, inhibition of MSV foci formation) was < 0.003 ng/mL. For the same compound, the “LTS (long term survivors at 60 days)” value (P 388 leukemia; 0.25 mg/Kg i.p. day 1) was 0/10, the “T/C % (median survival time, % over untreated controls)” value (P 388 leukemia; 0.25 mg/Kg i.p. day 1) was 143% and the Toxic deaths (P 388 leukemia; 0.25 mg/Kg i.p. day 1) was 0/10. For the same compound, the “LTS (long term survivors at 60 days)” value (P 388 leukemia; 0.5 mg/Kg i.p. day 1) was 1/10, the “T/C % (median survival time, % over untreated controls)” value (P 388 leukemia; 0.5 mg/Kg i.p. day 1) was 162% and the Toxic deaths (P 388 leukemia; 0.5 mg/Kg i.p. day 1) was 1/10. For the same compound, the “LTS (long term survivors at 60 days)” value (P 388 leukemia; 1 mg/Kg i.p. day 1) was 0/10, the “T/C % (median survival time, % over untreated controls)” value (P 388 leukemia; 1 mg/Kg i.p. day 1) was 162% and the Toxic deaths (P 388 leukemia; 1 mg/Kg i.p. day 1) was 8/10. The “antitumor activity at the optimal (non-toxic) dose vs adriamycin” value (P 388 leukemia; P 388) was “comparable to that of adriamycin”.
